Assays:
[1] = tested on: locomotor activity in rats; assay: Spontaneous locomotor activity (open field); assay type: in vivo; conditions: clozapine comparator, dose not given
Procedure: One of the common side effects of many antipsychotic drugs is sedation. It has been shown that agents that have sedative actions in man have the same effect in animals. The purpose of these studies was to evaluate the effect of test compounds on the locomotor activity in rats, which is used to assess the sedative properties of antipsychotic compounds.
The animals (male Sprague Dawley rats, about 300-450 g; Charles River) were assessed for ambulation for 30 minutes before and for 30 min after vehicle or test compounds. […] Locomotor activity is quantified by the number of photobeams crossed by the animal over several 3×10 min intervals.

catalepsy in mice = assay: Catalepsy mouse model; assay type: in vivo; conditions: highest dose 30 mg/kg
Procedure: A catalepsy mouse model was used to investigate a potential side effect of antipsychotic agents.
The catalepsy methodology used herein has been adapted from Tada, M. et al. ((2004). Psychopharmacol., 176, 94-100) as well as Wang et al. ((2000). J. Neurosci., 20, 8305-8314).
The animals (Swiss Webster, female, about 20 g; Charles River) were administered compounds of the invention (1 μg/kg-30 mg/kg ip). Twenty seven minutes after test compound injection, the mice's forepaws were placed on a horizontal steel bar (diameter 0.2 cm), elevated 3-5 cm above the tabletop and the time taken for the animals to remove both paws was recorded for up to 2 min.

CN1CCN(C2=Nc3cc(Cl)ccc3Nc3ccccc32)CC1 [clozapine, reference compound]
locomotor activity in rat (open field) [1]: trend toward sedation
catalepsy (catalepsy in mice): induced catalepsy

Source: patent US20120178738A1, “DIBENZO [B,F] [1,4]OXAZAPINE COMPOUNDS” (ARYX THERAPEUTICS, INC., priority 2007, published 2012)
